Reference: ChEMBL document CHEMBL5705887, “Distinct concentration-dependent effects of the polo-like kinase 1-specific inhibitor GSK461364A, including differential effect on apoptosis” (Cancer Res, 2009)
Calls of active or inactive are those of the source. The calls are words filed in the database; no cut-off is given here.

Assays:
[1] = test system: NCI-H522; assay: Antiproliferative activity against human NCI-H522 cells assessed as of viable cell signal at minimum maximum cell growth incubated for 72 hrs by celltiter-glo assay relative to control; type: functional
[2] = test system: SJSA-1; assay: Antiproliferative activity against human SJSA-1 cells assessed as growth inhibition incubated for 72 hrs by celltiter-glo assay; type: functional
[3] = test system: SK-MEL3; assay: Antiproliferative activity against human SK-MEL3 cells assessed as of viable cell signal at minimum maximum cell growth incubated for 72 hrs by celltiter-glo assay relative to control; type: functional
[4] = test system: ZR-75-1; assay: Growth inhibition of human ZR-75-1 cells assessed as caspase-3/caspase-7 activation at 0.1 nmol/L incubated for 5 to 7 days by […]; type: functional, cell-based; settings: time 5-7 day
[5] = test system: SW480; assay: Antiproliferative activity against human SW480 cells assessed as viable cell signal at maximum growth inhibition incubated for 72 hrs by celltiter-glo assay relative to control; type: functional
[6] = test system: U2OS; assay: Antiproliferative activity against human U2OS cells assessed as of viable cell signal at minimum maximum cell growth incubated for 72 hrs by celltiter-glo assay relative to control; type: functional
[7] = test system: MX1; assay: Antiproliferative activity against human MX1 cells assessed as growth inhibition incubated for 72 hrs by celltiter-glo assay; type: functional
[8] = test system: Fibroblast growth factor receptor 1 (Homo sapiens), P11362 [V561M]; assay: Inhibition of N-terminal his6-tagged recombinant human FGFR1 V561M mutant (456 to 765 residues) at 10 uM relative to control
[9] = test system: A704; assay: Antiproliferative activity against human A704 cells assessed as viable cell signal at maximum growth inhibition incubated for 72 hrs by celltiter-glo assay relative to control; type: functional
[10] = test system: PC-3; assay: Antiproliferative activity against human PC-3 cells assessed as growth inhibition incubated for 72 hrs by celltiter-glo assay; type: functional
[11] = test system: PC-3; assay: Antiproliferative activity against human PC-3 cells assessed as viable cell signal at maximum growth inhibition incubated for 72 hrs by celltiter-glo assay relative to control; type: functional
[12] = test system: SCLC; assay: Antiproliferative activity against human SCLC cells assessed as of viable cell signal at minimum maximum cell growth incubated for 72 hrs by celltiter-glo assay relative to control; type: functional
[13] = test system: U2OS; assay: Induction of mitotic arrest in human U2OS cells assessed as effect on pHH3 level at 10 to 250 nmol/L incubated for 19 hrs by ELISA analysis; type: functional, cell-based; settings: dose 10-250 nmol/L
[14] = test system: NCI-H522; assay: Antiproliferative activity against human NCI-H522 cells assessed as viable cell signal at maximum growth inhibition incubated for 72 hrs by celltiter-glo assay relative to control; type: functional
[15] = target: Ribosomal protein S6 kinase alpha-1 (Homo sapiens) (UniProt Q15418); assay: Inhibition of N-terminal his6-tagged recombinant human RSK1 (2 to end residues) expressed in baculovirus Sf21 insect cells at 10 uM relative to control
[16] = test system: MIA PaCa-2; assay: Antiproliferative activity against human MIA PaCa-2 cells assessed as growth inhibition incubated for 72 hrs by celltiter-glo assay; type: functional
[17] = test system: HT-1080; assay: Antiproliferative activity against human HT-1080 cells assessed as of viable cell signal at minimum maximum cell growth incubated for 72 hrs by celltiter-glo assay relative to control; type: functional
[18] = test system: SW-620; assay: Antiproliferative activity against human SW620 cells assessed as of viable cell signal at minimum maximum cell growth incubated for 72 hrs by celltiter-glo assay relative to control; type: functional
[19] = test system: HCT-15; assay: Antiproliferative activity against human HCT-15 cells assessed as of viable cell signal at minimum maximum cell growth incubated for 72 hrs by celltiter-glo assay relative to control; type: functional
[20] = test system: COLO 205; assay: Antitumor activity against human COLO 205 cells xenografted in Nude mouse assessed as increase in pIk1 level at 50 to 100 mg/kg, ip measured at 24 to 48 hrs by immunohistochemistry analysis; type: functional, organism-based; settings: dose 50-100 mg/kg, time 24-48 hrs
[21] = test system: COLO 205; assay: Antitumor activity against human COLO 205 cells xenografted in Nude mouse assessed as increase in pIk1 level at 50 to 100 mg/kg, ip administered one dose every 2 day repeated for 12 days by immunohistochemistry analysis; type: functional, organism-based; settings: dose 50-100 mg/kg, time 12.0 day
[22] = test system: A549; assay: Antiproliferative activity against human A549 cells assessed as of viable cell signal at minimum maximum cell growth incubated for 72 hrs by celltiter-glo assay relative to control; type: functional
[23] = test system: LNCaP; assay: Antiproliferative activity against human LNCaP cells assessed as viable cell signal at maximum growth inhibition incubated for 72 hrs by celltiter-glo assay relative to control; type: functional
[24] = test system: MDA-MB-231; assay: Antiproliferative activity against human MDA-MB-231 cells assessed as growth inhibition incubated for 72 hrs by celltiter-glo assay; type: functional
[25] = test system: NCI-H460; assay: Antiproliferative activity against human NCI-H460 cells assessed as viable cell signal at maximum growth inhibition incubated for 72 hrs by celltiter-glo assay relative to control; type: functional
[26] = test system: SW480; assay: Antiproliferative activity against human SW480 cells assessed as of viable cell signal at minimum maximum cell growth incubated for 72 hrs by celltiter-glo assay relative to control; type: functional
[27] = test system: DLD-1; assay: Antiproliferative activity against human DLD-1 cells assessed as of viable cell signal at minimum maximum cell growth incubated for 72 hrs by celltiter-glo assay relative to control; type: functional
[28] = test system: BXPC-3; assay: Antiproliferative activity against human BXPC-3 cells assessed as of viable cell signal at minimum maximum cell growth incubated for 72 hrs by celltiter-glo assay relative to control; type: functional
[29] = test system: Raji; assay: Antiproliferative activity against human Raji cells assessed as viable cell signal at maximum growth inhibition incubated for 72 hrs by celltiter-glo assay relative to control; type: functional
[30] = Antiproliferative activity against human PL45 cells assessed as viable cell signal at maximum growth inhibition incubated for 72 hrs by celltiter-glo assay relative to control; type: functional
[31] = test system: LNCaP; assay: Antiproliferative activity against human LNCaP cells assessed as growth inhibition incubated for 72 hrs by celltiter-glo assay; type: functional
[32] = test system: A-431; assay: Antiproliferative activity against human A-431 cells assessed as viable cell signal at maximum growth inhibition incubated for 72 hrs by celltiter-glo assay relative to control; type: functional
[33] = test system: MCF7; assay: Antiproliferative activity against human MCF7 cells assessed as of viable cell signal at minimum maximum cell growth incubated for 72 hrs by celltiter-glo assay relative to control; type: functional
[34] = test system: OVCAR-3; assay: Antiproliferative activity against human OVCAR-3 cells assessed as growth inhibition incubated for 72 hrs by celltiter-glo assay; type: functional
[35] = test system: NCI-H358; assay: Antiproliferative activity against human NCI-H358 cells assessed as of viable cell signal at minimum maximum cell growth incubated for 72 hrs by celltiter-glo assay relative to control; type: functional
[36] = test system: A498; assay: Antiproliferative activity against human A498 cells assessed as viable cell signal at maximum growth inhibition incubated for 72 hrs by celltiter-glo assay relative to control; type: functional
[37] = test system: U2OS; assay: Antiproliferative activity against human U2OS cells assessed as viable cell signal at maximum growth inhibition incubated for 72 hrs by celltiter-glo assay relative to control; type: functional
[38] = test system: COLO 205; assay: Antiproliferative activity against human COLO 205 cells assessed as growth inhibition incubated for 72 hrs by celltiter-glo assay; type: functional
[39] = test system: BXPC-3; assay: Antiproliferative activity against human BXPC-3 cells assessed as growth inhibition incubated for 72 hrs by celltiter-glo assay; type: functional
[40] = test system: HeLa; assay: Antiproliferative activity against human HeLa cells assessed as growth inhibition incubated for 72 hrs by celltiter-glo assay; type: functional

Sequence of Fibroblast growth factor receptor 1 (Homo sapiens), P11362 [V561M] (P11362 whole entry V561M, the tested form may be a part): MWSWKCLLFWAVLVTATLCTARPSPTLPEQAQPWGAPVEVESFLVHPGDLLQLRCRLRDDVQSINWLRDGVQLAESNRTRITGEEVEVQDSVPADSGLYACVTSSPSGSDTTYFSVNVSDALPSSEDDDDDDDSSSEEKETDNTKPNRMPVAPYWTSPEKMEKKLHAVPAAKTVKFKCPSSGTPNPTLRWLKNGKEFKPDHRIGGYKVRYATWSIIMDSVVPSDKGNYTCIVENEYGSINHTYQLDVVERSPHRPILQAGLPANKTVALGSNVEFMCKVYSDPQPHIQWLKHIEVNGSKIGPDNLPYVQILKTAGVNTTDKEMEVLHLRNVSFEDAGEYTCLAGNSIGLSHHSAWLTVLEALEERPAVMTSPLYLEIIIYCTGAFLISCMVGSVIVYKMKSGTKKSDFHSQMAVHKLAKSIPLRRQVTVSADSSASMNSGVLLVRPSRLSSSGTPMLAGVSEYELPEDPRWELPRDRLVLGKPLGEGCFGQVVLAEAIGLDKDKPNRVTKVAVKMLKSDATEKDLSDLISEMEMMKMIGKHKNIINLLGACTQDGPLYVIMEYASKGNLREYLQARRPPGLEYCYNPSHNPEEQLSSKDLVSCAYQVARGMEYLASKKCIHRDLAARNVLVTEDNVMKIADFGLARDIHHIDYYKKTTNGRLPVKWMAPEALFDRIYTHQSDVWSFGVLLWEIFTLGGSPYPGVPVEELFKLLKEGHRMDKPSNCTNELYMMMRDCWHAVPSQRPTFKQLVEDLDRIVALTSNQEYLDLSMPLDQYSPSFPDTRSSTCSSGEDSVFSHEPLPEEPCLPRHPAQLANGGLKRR
Sequence of Ribosomal protein S6 kinase alpha-1 (Homo sapiens) (Q15418 whole entry): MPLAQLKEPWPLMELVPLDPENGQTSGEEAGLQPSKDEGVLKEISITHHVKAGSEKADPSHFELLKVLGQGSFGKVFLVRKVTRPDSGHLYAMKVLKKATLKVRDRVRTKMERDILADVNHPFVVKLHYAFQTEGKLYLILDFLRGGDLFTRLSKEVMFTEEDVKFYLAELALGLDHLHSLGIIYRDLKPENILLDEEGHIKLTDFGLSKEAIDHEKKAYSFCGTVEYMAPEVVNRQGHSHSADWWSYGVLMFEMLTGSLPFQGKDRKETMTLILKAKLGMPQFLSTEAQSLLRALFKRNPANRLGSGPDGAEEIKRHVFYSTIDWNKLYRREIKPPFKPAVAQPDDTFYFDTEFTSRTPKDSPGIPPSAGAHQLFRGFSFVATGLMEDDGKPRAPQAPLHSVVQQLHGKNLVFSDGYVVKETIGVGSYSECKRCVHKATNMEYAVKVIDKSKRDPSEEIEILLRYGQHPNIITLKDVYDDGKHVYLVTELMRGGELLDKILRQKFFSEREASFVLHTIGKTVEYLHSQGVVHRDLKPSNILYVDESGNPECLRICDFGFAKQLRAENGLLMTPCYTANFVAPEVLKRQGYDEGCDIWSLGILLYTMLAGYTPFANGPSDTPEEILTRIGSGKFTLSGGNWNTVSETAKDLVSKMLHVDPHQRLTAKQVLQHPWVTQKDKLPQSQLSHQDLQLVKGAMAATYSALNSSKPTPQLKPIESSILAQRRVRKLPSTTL

C[C@@H](Oc1cc(-n2cnc3ccc(CN4CCN(C)CC4)cc32)sc1C(N)=O)c1ccccc1C(F)(F)F [GSK-461364]
Emin [1]: 125% | GI50 [2]: 24.4 nM | Emin [3]: 112.5% | Activity [4]: Active | Emax [5]: 512% | Emin [6]: 170.6% | GI50 [7]: 12.1 nM | inhibition [8]: 62% | Emax [9]: 255% | GI50 [10]: 14700 nM | Emax [11]: 582% | Emin [12]: 122% | Activity [13]: Active | Emax [14]: 264% | inhibition [15]: 72% | GI50 [16]: 39.9 nM | Emin [17]: 62.5% | Emin [18]: 54.6% | Emin [19]: 75% | Activity [20]: Active | Activity [21]: Active | Emin [22]: 124.1% | Emax [23]: 470% | GI50 [24]: 9.15 nM | Emax [25]: 952% | Emin [26]: 114.7% | Emin [27]: 441.3% | Emin [28]: 103.3% | Emax [29]: 434% | Emax [30]: 267% | GI50 [31]: 15.3 nM | Emax [32]: 820% | Emin [33]: 125.4% | GI50 [34]: 12.9 nM | Emin [35]: 150% | Emax [36]: 774% | Emax [37]: 771% | GI50 [38]: 14.2 nM | GI50 [39]: 23.1 nM | GI50 [40]: 21.8 nM
